Reference: patent EP0007672A1, “Isocyanoalkenes, process and useful intermediates for their preparation, pharmaceutical and fungicidal preparations containing those isocyanoalkenes and the use of the fungicidal preparations in agriculture” (GIST-BROCADES N.V., priority 1978, dated 1980)

Assay: storage stability
Assay type: physicochemical
Excerpt: Those compounds in which Rx or Ry is a hydrogen atom should be stored generally at lower temperatures, e.g. in a refrigerator. The 1-isocyano-l-p-toluenesulphonylethene (Rx and Ry hydrogen atoms) appears to be very unstable. Notwithstanding this the compound, in the reaction medium in which it must be present, could be converted with a primary amine into the corresponding imidazole, which in turn, may be converted into its ^picrate. This proves that 1-isocyano-i-p-toluenesulphonylethene exists.

- stability: very unstable
Structure (SMILES): [C-]#[N+]C(=C)S(=O)(=O)c1ccc(C)cc1 [Example 8, 1-isocyano-1-(4-toluenesulphonyl)-ethene]
